Patent US6525001B1, “Substituted pyrimidine and pyridine herbicides” (Mid-American Commercialization Corporation, priority 1997, dated 2003)

Experiments:
Type in all cases: in vivo
Design in all cases: key: 0 is no effect; 10 is complete control
[1] = tested on: pigweed (Amaranthus retroflexus); assay: Test B pre-/postemergence
Text: (§1) Seeds of bedstraw (Galium aparine), blackgrass (Alopecurus myosuroides), broadleaf signalgrass (Brachiaria decumbens), cocklebur (Xanthium strumarium), corn (Zea mays), crabgrass (Digitaria sanguinalis), giant foxtail (Setaria faberii), lambsquarters (Chenopodium album), momingglory (Ipomoea hederacea), pigweed (Amaranthus retroflexus), rape (Brassica napus), soybean (Glycine max), sugar beet (Beta vulgaris), velvetleaf (Abutilon theophrasti), wheat (Triticum aestivum), wild oat (Avena fatua) and purple nutsedge (Cyperus rotundus) tubers were planted and treated preemergence with test chemicals formulated in a non-phytotoxic solvent mixture which included a surfactant.
(§2) At the same time, these crop and weed species were also treated with postemergence applications of test chemicals formulated in the same manner. Plants ranged in height from 2 to 18 cm (1- to 4-leaf stage) for postemergence treatments. Plant species in the flood test consisted of rice (Oryza sativa), smallflower flatsedge (Cyperus difformis), duck salad (Heteranthera limosa) and bamyardgrass (Echinochloa crus-galli) grown to the 2-leaf stage for testing. Treated plants and controls were maintained in a greenhouse for twelve to sixteen days, after which all species were compared to controls and visually evaluated. Plant response ratings, summarized in Table B, are based on a scale of 0 to 10 where 0 is no effect and 10 is complete control. A dash (−) response means no test result.

soybean (Glycine max) = assay: Test B pre-/postemergence
Text: as §1, §2

[2] = tested on: purple nutsedge (Cyperus rotundus); assay: Test B pre-/postemergence
Text: as §1, §2

wild oat (Avena fatua) = assay: Test B pre-/postemergence
Text: as §1, §2

[3] = tested on: giant foxtail (Setaria faberii); assay: Test B pre-/postemergence; settings: for Plant response rating, Giant foxtail: Postemergence; for Giant foxtail plant response rating: Preemergence
Text: as §1, §2

[4] = tested on: wheat (Triticum aestivum); assay: Test B pre-/postemergence
Text: as §1, §2

[5] = tested on: cocklebur (Xanthium strumarium); assay: Test B pre-/postemergence
Text: as §1, §2

corn (Zea mays) = assay: Test B pre-/postemergence
Text: as §1, §2

[6] = tested on: crabgrass (Digitaria sanguinalis); assay: Test B pre-/postemergence
Text: as §1, §2

[7] = tested on: broadleaf signalgrass (Brachiaria decumbens); assay: Test B pre-/postemergence
Text: as §1, §2

[8] = tested on: velvetleaf (Abutilon theophrasti); assay: Test B pre-/postemergence
Text: as §1, §2

[9] = tested on: sugar beet (Beta vulgaris); assay: Test B pre-/postemergence
Text: as §1, §2

[10] = tested on: momingglory (Ipomoea hederacea); assay: Test B pre-/postemergence
Text: as §1, §2

[11] = tested on: blackgrass (Alopecurus myosuroides); assay: Test B pre-/postemergence
Text: as §1, §2

rape (Brassica napus) = assay: Test B pre-/postemergence
Text: as §1, §2

[12] = tested on: bedstraw (Galium aparine); assay: Test B pre-/postemergence
Text: as §1, §2

[13] = tested on: bamyardgrass (Echinochloa crus-galli); assay: Test B flood test
Method in brief: (§3)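 Each value is a visual injury score relative to controls, with 10 meaning complete control and 0 no effect. Evaluation took place twelve to sixteen days after the 2-leaf-stage plants were treated and kept in the greenhouse.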

[14] = tested on: duck salad (Heteranthera limosa); assay: Test B flood test
Method in brief: as §3

[15] = tested on: smallflower flatsedge (Cyperus difformis); assay: Test B flood test
Method in brief: as §3

rice (Oryza sativa) = assay: Test B flood test
Method in brief: as §3

[16] = Rate 62 g/ha, Postemergence (flood test)
[17] = Rate 125 g/ha, Postemergence, flood test
[18] = Rate 250 g/ha, Postemergence (flood test species)

COC(=O)C(c1cccc(C(F)(F)F)c1)c1nc(-c2ccc(C(F)(F)F)cc2)ncc1C (racemic) [Compound 18]
Plant response rating, Redroot pigweed ([1]; Rate 62 g/ha, Postemergence): 6
Redroot pigweed plant response rating ([1]; Rate 62 g/ha, Preemergence): 0
Plant response rating, Redroot pigweed ([1]; Rate 125 g/ha, Postemergence): 6
Redroot pigweed plant response rating ([1]; Rate 125 g/ha, Preemergence): 3
Plant response rating, Redroot pigweed ([1]; Rate 250 g/ha, Postemergence): 9
Plant response rating, Redroot pigweed ([1]; Rate 250 g/ha, Preemergence): 7
Plant response rating, Soybean (soybean (Glycine max); Rate 62 g/ha, Postemergence): 3
Soybean plant response rating (soybean (Glycine max); Rate 62 g/ha, Preemergence): 0
Plant response rating, Soybean (soybean (Glycine max); Rate 125 g/ha, Postemergence): 4
Soybean plant response rating (soybean (Glycine max); Rate 125 g/ha, Preemergence): 0
Plant response rating, Soybean (soybean (Glycine max); Rate 250 g/ha, Postemergence): 6
Plant response rating, Soybean (soybean (Glycine max); Rate 250 g/ha, Preemergence): 0
Plant response rating, Nutsedge ([2]; Rate 62 g/ha, Postemergence): 0
Nutsedge plant response rating ([2]; Rate 62 g/ha, Preemergence): 0
Plant response rating, Nutsedge ([2]; Rate 125 g/ha, Postemergence): 0
Nutsedge plant response rating ([2]; Rate 125 g/ha, Preemergence): 0
Plant response rating, Nutsedge ([2]; Rate 250 g/ha, Postemergence): 0
Plant response rating, Nutsedge ([2]; Rate 250 g/ha, Preemergence): 0
Plant response rating, Wild oats (wild oat (Avena fatua); Rate 62 g/ha, Postemergence): 3
Wild oats plant response rating (wild oat (Avena fatua); Rate 62 g/ha, Preemergence): 2
Plant response rating, Wild oats (wild oat (Avena fatua); Rate 125 g/ha, Postemergence): 5
Wild oats plant response rating (wild oat (Avena fatua); Rate 125 g/ha, Preemergence): 3
Plant response rating, Wild oats (wild oat (Avena fatua); Rate 250 g/ha, Postemergence): 5
Plant response rating, Wild oats (wild oat (Avena fatua); Rate 250 g/ha, Preemergence): 5
Plant response rating, Giant foxtail ([3]; Rate 62 g/ha): 1
Giant foxtail plant response rating ([3]; Rate 62 g/ha): 0
Plant response rating, Giant foxtail ([3]; Rate 125 g/ha): 1
Giant foxtail plant response rating ([3]; Rate 125 g/ha): 0
Plant response rating, Giant foxtail ([3]; Rate 250 g/ha): 1
Plant response rating, Wheat ([4]; Rate 62 g/ha, Postemergence): 1
Wheat plant response rating ([4]; Rate 62 g/ha, Preemergence): 0
Plant response rating, Wheat ([4]; Rate 125 g/ha, Postemergence): 3
Wheat plant response rating ([4]; Rate 125 g/ha, Preemergence): 0
Plant response rating, Wheat ([4]; Rate 250 g/ha, Postemergence): 3
Plant response rating, Wheat ([4]; Rate 250 g/ha, Preemergence): 0
Plant response rating, Cocklebur ([5]; Rate 62 g/ha, Postemergence): 6
Plant response rating, Cocklebur ([5]; Rate 125 g/ha, Postemergence): 7
Plant response rating, Cocklebur ([5]; Rate 250 g/ha, Postemergence): 8
Plant response rating, Cocklebur ([5]; Rate 250 g/ha, Preemergence): 0
Plant response rating, Corn (corn (Zea mays); Rate 62 g/ha, Postemergence): 2
Corn plant response rating (corn (Zea mays); Rate 62 g/ha, Preemergence): 0
Plant response rating, Corn (corn (Zea mays); Rate 125 g/ha, Postemergence): 2
Corn plant response rating (corn (Zea mays); Rate 125 g/ha, Preemergence): 0
Plant response rating, Corn (corn (Zea mays); Rate 250 g/ha, Postemergence): 2
Plant response rating, Corn (corn (Zea mays); Rate 250 g/ha, Preemergence): 0
Plant response rating, Crabgrass ([6]; Rate 62 g/ha, Postemergence): 1
Crabgrass plant response rating ([6]; Rate 62 g/ha, Preemergence): 0
Plant response rating, Crabgrass ([6]; Rate 125 g/ha, Postemergence): 2
Crabgrass plant response rating ([6]; Rate 125 g/ha, Preemergence): 0
Plant response rating, Crabgrass ([6]; Rate 250 g/ha, Postemergence): 3
Plant response rating, Crabgrass ([6]; Rate 250 g/ha, Preemergence): 6
Plant response rating, B. signalgrass ([7]; Rate 62 g/ha, Postemergence): 2
B. signalgrass plant response rating ([7]; Rate 62 g/ha, Preemergence): 0
Plant response rating, B. signalgrass ([7]; Rate 125 g/ha, Postemergence): 2
B. signalgrass plant response rating ([7]; Rate 125 g/ha, Preemergence): 1
Plant response rating, B. signalgrass ([7]; Rate 250 g/ha, Postemergence): 3
Plant response rating, B. signalgrass ([7]; Rate 250 g/ha, Preemergence): 2
Plant response rating, Velvetleaf ([8]; Rate 62 g/ha, Postemergence): 5
Velvetleaf plant response rating ([8]; Rate 62 g/ha, Preemergence): 0
Plant response rating, Velvetleaf ([8]; Rate 125 g/ha, Postemergence): 6
Velvetleaf plant response rating ([8]; Rate 125 g/ha, Preemergence): 0
Plant response rating, Velvetleaf ([8]; Rate 250 g/ha, Postemergence): 7
Plant response rating, Velvetleaf ([8]; Rate 250 g/ha, Preemergence): 0
Plant response rating, Sugarbeets ([9]; Rate 62 g/ha, Postemergence): 7
Sugarbeets plant response rating ([9]; Rate 62 g/ha, Preemergence): 3
Plant response rating, Sugarbeets ([9]; Rate 125 g/ha, Postemergence): 7
Sugarbeets plant response rating ([9]; Rate 125 g/ha, Preemergence): 6
Plant response rating, Sugarbeets ([9]; Rate 250 g/ha, Postemergence): 9
Plant response rating, Sugarbeets ([9]; Rate 250 g/ha, Preemergence): 6
Plant response rating, Morningglory ([10]; Rate 62 g/ha, Postemergence): 3
Morningglory plant response rating ([10]; Rate 62 g/ha, Preemergence): 1
Plant response rating, Morningglory ([10]; Rate 125 g/ha, Postemergence): 8
Morningglory plant response rating ([10]; Rate 125 g/ha, Preemergence): 4
Plant response rating, Morningglory ([10]; Rate 250 g/ha, Postemergence): 8
Plant response rating, Morningglory ([10]; Rate 250 g/ha, Preemergence): 6
Plant response rating, Blackgrass ([11]; Rate 62 g/ha, Postemergence): 2
Blackgrass plant response rating ([11]; Rate 62 g/ha, Preemergence): 0
Plant response rating, Blackgrass ([11]; Rate 125 g/ha, Postemergence): 2
Blackgrass plant response rating ([11]; Rate 125 g/ha, Preemergence): 0
Plant response rating, Blackgrass ([11]; Rate 250 g/ha, Postemergence): 2
Plant response rating, Blackgrass ([11]; Rate 250 g/ha, Preemergence): 1
Plant response rating, Rape (rape (Brassica napus); Rate 62 g/ha, Postemergence): 4
Rape plant response rating (rape (Brassica napus); Rate 62 g/ha, Preemergence): 0
Plant response rating, Rape (rape (Brassica napus); Rate 125 g/ha, Postemergence): 7
Rape plant response rating (rape (Brassica napus); Rate 125 g/ha, Preemergence): 0
Plant response rating, Rape (rape (Brassica napus); Rate 250 g/ha, Postemergence): 9
Plant response rating, Rape (rape (Brassica napus); Rate 250 g/ha, Preemergence): 0
Plant response rating, Bedstraw ([12]; Rate 62 g/ha, Postemergence): 7
Bedstraw plant response rating ([12]; Rate 62 g/ha, Preemergence): 0
Plant response rating, Bedstraw ([12]; Rate 125 g/ha, Postemergence): 8
Bedstraw plant response rating ([12]; Rate 125 g/ha, Preemergence): 2
Plant response rating, Bedstraw ([12]; Rate 250 g/ha, Postemergence): 9
Plant response rating, Bedstraw ([12]; Rate 250 g/ha, Preemergence): 5
Plant response rating, Barnyardgrass [13, 16]: 2
Plant response rating, Barnyardgrass [13, 17]: 1
Plant response rating, Barnyardgrass [13, 18]: 2
Plant response rating, Ducksalad [14, 16]: 1
Plant response rating, Ducksalad [14, 17]: 2
Plant response rating, Ducksalad [14, 18]: 2
Plant response rating, S. Flatsedge [15, 16]: 9
Plant response rating, S. Flatsedge [15, 17]: 1
Plant response rating, S. Flatsedge [15, 18]: 2
Plant response rating, Rice (rice (Oryza sativa); [16]): 1
Plant response rating, Rice (rice (Oryza sativa); [17]): 0
Plant response rating, Rice (rice (Oryza sativa); [18]): 0
